Measured values as given in paper PMC10582335 (Frontiers in Pharmacology, 2023).
Read-outs that look alike come from different tables or passages of the source.

Key:
[1] = design: method as in Frost et al., 2015; settings: ref Frost et al., 2015, cited from earlier work
Abcb1a mRNA (P-gp) = assay: qRT-PCR of mRNA expression in rat tissues after multiple-dose almonertinib; type: in vivo; settings: rats given almonertinib for nine consecutive days, n = 3
Protocol: Sixty healthy rats were randomly divided into ten groups (n = 6). […] Blood samples were centrifuged at 3,500 g for 10 min, and then the supernatant was gathered and stored in a -80°C refrigerator. After, rat intestine, kidney and liver tissues were harvested for molecular analysis on the ninth or fifth day after treatment with the corresponding drugs for each group. The tissues were placed immediately at -80°C. qRT-PCR analysis was used to determine mRNA levels of Abcb1a, Abcg2 and Cyp3a1 in the liver and intestines, and Abcb1a and Abcg2 in the kidney of rats. Total RNA was isolated from frozen liver, intestine and kidney samples using TRNzol Universal according to the manufacturer's instructions. A Bio Tek Epoch (Bio Tek Instruments, Inc., Winooski, VT, United States) was employed to quantify the purity and concentration of the total RNA based on the ratio of the absorbance between 260 and 280 nm. RNA samples of 1 μg were transformed to complementary DNA (cDNA) using the […] Kit. The real-time PCR assays were accomplished using a two-step amplification method based on the recommendations in a SLAN-96S Real-Time PCR system (Shanghai Hongshi Medical Technology Co., Ltd. Shanghai, China). […] was used as an internal control, and the PCR cycling criteria were as follows: 95°C for 15 min, then 40 cycles of 95°C for 10, and 60°C for 32 s.

[2] = Pharmacokinetics of rivaroxaban in rats, alone and after multiple doses of almonertinib; type: in vivo, Sprague-Dawley (SD) rats; settings: for AUC(0-inf) / Cmax / Tmax / CL/F / MRT last / MRT inf / Vd/F: po; for CL/F: read-out: CLz/F (converted); for MRT last: read-out: MRT0-t; for MRT inf: read-out: MRT0-∞; for Vd/F: read-out: Vz/F; for half-life: read-out: t1/2z (converted)
Protocol: Analytes were measured using UPLC-MS/MS, which was equipped with an LC-30A ultra-performance liquid chromatography (Shimadzu, Kyoto, Japan) and Sciex Triple Quad 5,500 tandem triple quadrupole mass spectrometer (AB Sciex, Framingham, MA, United States). Chromatographic separation was performed using an XSelect HSS T3 column (2.1 mm × 100 mm, 2.5 µm, Waters, Milford, MA, United States) at 40°C by gradient elution. The mobile phase consisted of water (A) and acetonitrile (0.1% formic acid, B). The elution procedure was as follows: 0–1.0 min, 50% B; 1.0–1.5 min, 50%→98% B; 1.5–3.0 min, 98% B; 3.0–3.1 min, 98%→50% B; 3.1–4.1 min, 50% B. The flow rate was 0.35 mL min^−1, and the injection volume was 6 µL.
The positive ion mode with multiple reaction detection was used. […] The mass spectrometer conditions, including delustering potential (DP) and collision energy (CE) of the compounds, are shown in Table 1. Other parameters of the mass spectrometer were as follows: ion source gas 1, 60.0 psi; ion source gas 2, 50.0 psi; curtain gas, 25.0 psi; source temperature, 500°C; ion spray voltage, 5,500 V.
Protein precipitation was used to process the plasma samples. 5 μL of mixed IS working solution, 50 µL of the plasma samples, and 150 µL of acetonitrile were vortex-mixed for 1.0 min. Then, the mixture was centrifuged at 13,000 × g for 10 min; 100 µL of 50% acetonitrile-water was added to 100 µL of supernatant, vortex-mixed, and centrifuged again. The supernatant was transferred to a 96-well plate for sample analysis.
Healthy male Sprague-Dawley (SD) rats weighing 250 ± 20 g were purchased from Beijing Huafukang Biotechnology Co., Ltd. (Beijing, China). The license number is SCXK (Beijing) 2019–0008. The study was approved and supervised by the Animal Ethics Committee of Hebei General Hospital (Shijiazhuang, China) (No. 2023024). Adaptive feeding (sufficient food and water) was performed for 1 week before the experiment. All the rats were kept under suitable conditions (12 h dark-light diurnal cycle, appropriate temperature at 23°C–25°C, relative humidity of 50% ± 10%). All rats were fasted for 12 h before starting the experiments while still given water.
Sixty healthy rats were randomly divided into ten groups (n = 6). […] Blood samples were centrifuged at 3,500 g for 10 min, and then the supernatant was gathered and stored in a −80°C refrigerator. After, rat intestine, kidney and liver tissues were harvested for molecular analysis on the ninth or fifth day after treatment with the corresponding drugs for each group. The tissues were placed immediately at −80°C.
DAS 2.1.1 Software (Mathematical Pharmacology Professional Committee of China, Shanghai, China) was applied to calculate pharmacokinetic parameters using non-compartmental analysis. SPSS 25.0 statistical software (SPSS Inc., Chicago, IL, United States) was applied to statistically analyze the main pharmacokinetic parameters, including AUC, Cmax, Tmax, t1/2, CLz/F, Vz/F, and MRT. Statistical comparisons were conducted using a analysis of variance, t-test or nonparametric rank-sum test depending on the data type; p-value <0.05 was deemed statistically significant.

[3] = male, Sprague-Dawley, rat, plasma, 1 mg/kg, rats, oral rivaroxaban 1 mg/kg after almonertinib 15 mg/kg for nine days (group 6), mean ± SD, n = 6
[4] = male, Sprague-Dawley, rat, plasma, 2 mg/kg, rats, oral rivaroxaban 2 mg/kg after almonertinib 15 mg/kg for nine days (group 5), mean ± SD, n = 6
[5] = male, Sprague-Dawley, rat, plasma, 2 mg/kg, rats, oral rivaroxaban 2 mg/kg alone (group 1), mean ± SD, n = 6
[6] = rats, oral rivaroxaban 2 mg/kg after almonertinib 15 mg/kg for nine days (group 5), mean ± SD, n = 6
[7] = rivaroxaban 1 mg/kg with multiple doses of almonertinib (group 6) compared to group 1, rats
[8] = rivaroxaban 2 mg/kg with multiple doses of almonertinib (group 5) compared to group 1, rats

COc1ccc(-n2nc(C(N)=O)c3c2C(=O)N(c2ccc(N4CCCCC4=O)cc2)CC3)cc1 [apixaban, Apixaban]
increase in exposure to apixaban ([1]; combined with diltiazem): 1.4 fold
increase in exposure to apixaban ([1]; combined with ketoconazole): 2.0 fold

C=CC(=O)Nc1cc(Nc2nccc(-c3cn(C4CC4)c4ccccc34)n2)c(OC)cc1N(C)CCN(C)C [almonertinib, Almonertinib]
inhibition of mRNA expression of Abcb1a (Abcb1a mRNA (P-gp); intestine): 51.3%
inhibition of mRNA expression of Abcb1a (Abcb1a mRNA (P-gp); kidney): 42.9%

O=C(NC[C@H]1CN(c2ccc(N3CCOCC3=O)cc2)C(=O)O1)c1ccc(Cl)s1 [rivaroxaban, Rivaroxaban]
increase of AUC of rivaroxaban ([2]; after a half dose reduction of rivaroxaban, multiple doses of almonertinib, rats (discussion)): ~1.9 fold
increase of AUC of rivaroxaban ([2]; co-administration with almonertinib for multiple doses, rats (discussion, AUC not specified further)): more than 3.0 fold
AUC(0-inf) [2, 3]: 2230 ng·h/mL
Cmax [2, 3]: 457 ± 101 ng/mL
Tmax [2, 3]: 2.08 ± 0.49 h
CL/F [2, 3]: 7.83 mL/min/kg
MRT last [2, 3]: 4.1 ± 0.41 h
MRT inf [2, 3]: 4.3 ± 0.47 h
Vd/F [2, 3]: 2.83 ± 0.55 L/kg
AUC(0-inf) [2, 4]: 3540 ng·h/mL
Cmax [2, 4]: 862 ± 110 ng/mL
Tmax [2, 4]: 2.21 ± 0.95 h
CL/F [2, 4]: 10 mL/min/kg
MRT last [2, 4]: 3.94 ± 0.56 h
MRT inf [2, 4]: 4.12 ± 0.6 h
Vd/F [2, 4]: 3.75 ± 0.72 L/kg
AUC(0-inf) [2, 5]: 797 ± 169 ng·h/mL
Cmax [2, 5]: 200 ± 38 ng/mL
Tmax [2, 5]: 0.92 ± 0.3 h
CL/F [2, 5]: 43.7 mL/min/kg
MRT last [2, 5]: 4.72 ± 0.57 h
MRT inf [2, 5]: 6.09 ± 1.45 h
Vd/F [2, 5]: 26.4 ± 18 L/kg
AUC(0-t) ([2]; male, Sprague-Dawley, rat, plasma, rats, oral rivaroxaban 1 mg/kg after almonertinib 15 mg/kg for nine days (group 6), mean ± SD, n = 6, read-out: AUC0-t): 2220 ng·h/mL
half-life ([2]; male, Sprague-Dawley, rat, plasma, rats, oral rivaroxaban 1 mg/kg after almonertinib 15 mg/kg for nine days (group 6), mean ± SD, n = 6): 4.3 ± 0.91 h
AUC(0-t) ([2]; male, Sprague-Dawley, rat, plasma, rats, oral rivaroxaban 2 mg/kg alone (group 1), mean ± SD, n = 6, read-out: AUC0-t): 764 ± 164 ng·h/mL
half-life ([2]; male, Sprague-Dawley, rat, plasma, rats, oral rivaroxaban 2 mg/kg alone (group 1), mean ± SD, n = 6): 6.84 ± 3.46 h
AUC(0-t) [2, 6]: 3,511.15 ± 783.84 μg/L*h
t1/2z [2, 6]: 4.47 ± 0.80 h
Tmax of rivaroxaban longer than control [2, 7]: 1.26 fold
decrease of CLz/F of rivaroxaban [2, 7]: 4.57 fold
increase of AUC0-t of rivaroxaban [2, 7]: 1.90 fold
Tmax of rivaroxaban longer than control [2, 8]: 1.40 fold
decrease of CLz/F of rivaroxaban [2, 8]: 3.37 fold
increase of AUC0-t of rivaroxaban [2, 8]: 3.60 fold
increase of AUC0-∞ of rivaroxaban [2, 8]: 3.44 fold
